# Active and inactive are the calls of the source. No rule for the calls is given here.
# Legend:
# Format in all cases: functional
# [1] = biological target: Dual specificity protein kinase CLK2 (Homo sapiens, UniProt P49760)
# [2] = biological target: T1, Serine/threonine-protein kinase TBK1 (Homo sapiens, UniProt Q9UHD2); experiment: Navigating the Kinome. Panel member name: TBK1
# T1 sequence (Q9UHD2 whole entry): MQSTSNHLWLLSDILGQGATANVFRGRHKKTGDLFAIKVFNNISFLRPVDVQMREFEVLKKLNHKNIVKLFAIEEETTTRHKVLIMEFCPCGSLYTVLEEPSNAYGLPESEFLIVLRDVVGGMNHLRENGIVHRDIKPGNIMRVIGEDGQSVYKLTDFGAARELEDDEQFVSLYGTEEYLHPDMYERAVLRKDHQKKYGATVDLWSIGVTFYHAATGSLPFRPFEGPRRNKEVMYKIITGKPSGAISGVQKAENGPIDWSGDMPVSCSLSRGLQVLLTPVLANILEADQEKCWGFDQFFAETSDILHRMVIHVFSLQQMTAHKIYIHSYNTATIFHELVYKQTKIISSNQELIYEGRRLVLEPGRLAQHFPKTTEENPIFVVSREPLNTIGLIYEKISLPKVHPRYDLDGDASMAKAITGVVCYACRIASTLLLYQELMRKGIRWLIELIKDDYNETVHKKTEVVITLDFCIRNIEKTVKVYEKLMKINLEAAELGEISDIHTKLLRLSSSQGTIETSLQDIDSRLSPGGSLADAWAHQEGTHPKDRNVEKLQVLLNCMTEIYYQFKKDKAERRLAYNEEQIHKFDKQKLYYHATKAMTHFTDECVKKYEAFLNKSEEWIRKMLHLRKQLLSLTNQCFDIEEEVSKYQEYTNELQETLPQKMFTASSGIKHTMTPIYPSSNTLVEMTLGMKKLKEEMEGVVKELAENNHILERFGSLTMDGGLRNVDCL
# [3] = biological target: Casein kinase I isoform alpha (Homo sapiens, UniProt P48729)
# Chain of Casein kinase I isoform alpha (P48729 whole entry, canonical isoform): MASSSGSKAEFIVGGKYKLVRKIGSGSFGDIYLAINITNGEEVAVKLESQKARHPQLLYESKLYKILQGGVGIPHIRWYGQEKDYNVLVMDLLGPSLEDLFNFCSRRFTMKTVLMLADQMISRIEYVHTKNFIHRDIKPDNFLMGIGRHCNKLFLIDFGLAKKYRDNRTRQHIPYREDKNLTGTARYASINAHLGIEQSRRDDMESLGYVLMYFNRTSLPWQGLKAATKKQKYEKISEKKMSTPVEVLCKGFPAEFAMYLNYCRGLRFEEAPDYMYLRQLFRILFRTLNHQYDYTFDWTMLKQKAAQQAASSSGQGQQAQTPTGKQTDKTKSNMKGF
# [4] = biological target: Death-associated protein kinase 3 (Homo sapiens, UniProt O43293);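 also: measured as one member of a kinome-wide profiling panel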
# [5] = biological target: Dual specificity mitogen-activated protein kinase kinase 2 (Homo sapiens, UniProt P36507); experiment: Navigating the Kinome. Panel member name: MAP2K2
# [6] = biological target: Leucine-rich repeat serine/threonine-protein kinase 2 (Homo sapiens, UniProt Q5S007);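 also: value from a broad kinome-wide panel profiling study in which LRRK2 was one of the kinases tested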
# Chain of Leucine-rich repeat serine/threonine-protein kinase 2 (Q5S007 whole entry): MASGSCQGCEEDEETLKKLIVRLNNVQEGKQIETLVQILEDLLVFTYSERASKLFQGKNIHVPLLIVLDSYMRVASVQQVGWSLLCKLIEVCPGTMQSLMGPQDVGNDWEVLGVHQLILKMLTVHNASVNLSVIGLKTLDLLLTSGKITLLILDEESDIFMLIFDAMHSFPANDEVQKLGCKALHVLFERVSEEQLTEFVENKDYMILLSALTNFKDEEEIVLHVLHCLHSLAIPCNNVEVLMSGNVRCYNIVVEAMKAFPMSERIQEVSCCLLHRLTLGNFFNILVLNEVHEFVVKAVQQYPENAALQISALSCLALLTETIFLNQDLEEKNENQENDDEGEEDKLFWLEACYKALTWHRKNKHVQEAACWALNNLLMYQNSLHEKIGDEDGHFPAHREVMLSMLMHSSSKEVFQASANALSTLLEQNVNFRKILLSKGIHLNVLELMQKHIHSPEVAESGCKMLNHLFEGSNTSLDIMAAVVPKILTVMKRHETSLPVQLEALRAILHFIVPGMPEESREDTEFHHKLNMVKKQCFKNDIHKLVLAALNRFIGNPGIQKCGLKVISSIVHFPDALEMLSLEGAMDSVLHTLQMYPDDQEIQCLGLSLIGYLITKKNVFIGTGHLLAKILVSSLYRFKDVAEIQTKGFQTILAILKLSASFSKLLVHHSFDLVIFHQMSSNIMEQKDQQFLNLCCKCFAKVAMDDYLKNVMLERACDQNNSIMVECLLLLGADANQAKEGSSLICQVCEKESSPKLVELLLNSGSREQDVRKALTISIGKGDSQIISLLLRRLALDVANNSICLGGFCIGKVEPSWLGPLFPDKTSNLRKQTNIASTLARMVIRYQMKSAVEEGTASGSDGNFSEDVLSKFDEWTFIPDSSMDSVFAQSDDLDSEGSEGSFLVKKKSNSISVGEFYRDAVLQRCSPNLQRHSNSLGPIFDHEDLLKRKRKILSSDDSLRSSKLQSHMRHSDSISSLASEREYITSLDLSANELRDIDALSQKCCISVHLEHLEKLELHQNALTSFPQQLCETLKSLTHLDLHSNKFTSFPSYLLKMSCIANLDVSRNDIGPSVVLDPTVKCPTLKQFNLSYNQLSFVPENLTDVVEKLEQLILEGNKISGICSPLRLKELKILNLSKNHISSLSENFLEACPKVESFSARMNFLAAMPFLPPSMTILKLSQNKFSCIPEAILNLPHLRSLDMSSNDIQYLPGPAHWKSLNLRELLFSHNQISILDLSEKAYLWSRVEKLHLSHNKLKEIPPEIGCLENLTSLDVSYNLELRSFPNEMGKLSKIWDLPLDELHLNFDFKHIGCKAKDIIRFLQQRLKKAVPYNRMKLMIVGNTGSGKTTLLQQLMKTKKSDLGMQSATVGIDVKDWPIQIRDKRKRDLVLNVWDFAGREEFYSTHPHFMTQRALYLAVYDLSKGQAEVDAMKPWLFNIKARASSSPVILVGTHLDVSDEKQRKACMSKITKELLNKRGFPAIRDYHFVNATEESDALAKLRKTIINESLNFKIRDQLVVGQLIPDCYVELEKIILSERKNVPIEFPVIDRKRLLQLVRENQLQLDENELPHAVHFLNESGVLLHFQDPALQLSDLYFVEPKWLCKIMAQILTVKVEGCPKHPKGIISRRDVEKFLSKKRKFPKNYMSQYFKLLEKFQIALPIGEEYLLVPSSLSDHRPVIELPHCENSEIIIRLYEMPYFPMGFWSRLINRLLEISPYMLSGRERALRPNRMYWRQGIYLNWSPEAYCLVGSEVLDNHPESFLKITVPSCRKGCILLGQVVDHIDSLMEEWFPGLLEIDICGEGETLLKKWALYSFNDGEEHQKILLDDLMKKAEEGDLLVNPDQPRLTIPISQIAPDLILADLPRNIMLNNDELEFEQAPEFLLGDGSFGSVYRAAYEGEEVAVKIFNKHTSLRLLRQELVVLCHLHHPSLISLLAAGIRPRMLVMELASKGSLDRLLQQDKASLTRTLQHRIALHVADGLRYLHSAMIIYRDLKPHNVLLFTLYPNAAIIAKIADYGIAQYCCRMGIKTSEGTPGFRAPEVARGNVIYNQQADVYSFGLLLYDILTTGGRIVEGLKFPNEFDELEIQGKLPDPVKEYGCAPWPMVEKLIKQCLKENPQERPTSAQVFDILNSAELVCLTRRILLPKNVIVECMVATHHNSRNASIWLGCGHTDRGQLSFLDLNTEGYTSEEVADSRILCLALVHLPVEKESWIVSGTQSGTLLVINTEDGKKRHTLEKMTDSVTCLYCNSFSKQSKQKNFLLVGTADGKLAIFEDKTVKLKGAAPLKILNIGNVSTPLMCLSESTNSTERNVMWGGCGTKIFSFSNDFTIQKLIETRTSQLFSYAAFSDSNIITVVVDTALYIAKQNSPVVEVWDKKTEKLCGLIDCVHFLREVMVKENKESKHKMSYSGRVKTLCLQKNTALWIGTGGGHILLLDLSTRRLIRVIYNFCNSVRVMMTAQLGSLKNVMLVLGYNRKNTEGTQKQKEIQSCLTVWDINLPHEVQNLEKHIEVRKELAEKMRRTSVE
# [7] = biological target: Tyrosine-protein kinase JAK2 (Homo sapiens, UniProt O60674);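 also: JAK2 tested as one member of a kinase panel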
# [8] = biological target: Cyclin-dependent kinase 7 (Homo sapiens, UniProt P50613);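 also: value comes from a kinome-wide kinase profiling panel in which CDK7 is one member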
# Chain of Cyclin-dependent kinase 7 (P50613 whole entry): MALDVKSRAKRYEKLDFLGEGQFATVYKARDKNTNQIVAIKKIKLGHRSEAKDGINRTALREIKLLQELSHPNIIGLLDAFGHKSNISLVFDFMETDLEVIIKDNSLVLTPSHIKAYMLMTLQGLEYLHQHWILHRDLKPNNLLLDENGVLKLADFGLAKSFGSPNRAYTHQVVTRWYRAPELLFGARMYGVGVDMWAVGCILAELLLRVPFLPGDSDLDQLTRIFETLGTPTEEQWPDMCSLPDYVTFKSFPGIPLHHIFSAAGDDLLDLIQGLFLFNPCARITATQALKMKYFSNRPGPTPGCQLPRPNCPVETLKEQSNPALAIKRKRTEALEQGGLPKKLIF
# [9] = biological target: Cyclin-dependent kinase 5 (Homo sapiens, UniProt Q00535);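 also: CDK5 measured as one member of a kinase profiling panel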
# [10] = biological target: T2, Inhibitor of nuclear factor kappa-B kinase subunit epsilon (Homo sapiens, UniProt Q14164); experiment: Navigating the Kinome. Panel member name: IKBKE
# T2 sequence (Q14164 whole entry): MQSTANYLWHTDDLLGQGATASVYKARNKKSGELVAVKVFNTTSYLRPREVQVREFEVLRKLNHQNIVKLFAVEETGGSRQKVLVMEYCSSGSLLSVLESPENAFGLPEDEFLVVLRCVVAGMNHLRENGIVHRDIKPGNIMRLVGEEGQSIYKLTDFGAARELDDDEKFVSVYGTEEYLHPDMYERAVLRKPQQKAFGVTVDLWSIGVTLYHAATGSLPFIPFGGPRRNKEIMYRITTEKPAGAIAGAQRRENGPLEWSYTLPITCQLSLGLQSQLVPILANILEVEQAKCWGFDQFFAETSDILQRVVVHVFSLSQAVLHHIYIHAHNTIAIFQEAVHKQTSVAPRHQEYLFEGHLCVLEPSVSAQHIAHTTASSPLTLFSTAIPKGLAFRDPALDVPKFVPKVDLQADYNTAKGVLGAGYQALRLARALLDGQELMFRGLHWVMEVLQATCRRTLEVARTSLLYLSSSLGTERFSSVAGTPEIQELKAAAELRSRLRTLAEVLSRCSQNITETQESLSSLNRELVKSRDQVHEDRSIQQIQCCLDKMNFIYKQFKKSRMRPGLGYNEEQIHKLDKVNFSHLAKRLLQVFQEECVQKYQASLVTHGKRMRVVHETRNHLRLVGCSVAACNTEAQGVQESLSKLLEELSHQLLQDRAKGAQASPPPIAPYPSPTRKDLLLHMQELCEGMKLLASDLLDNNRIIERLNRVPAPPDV
# [11] = biological target: Platelet-derived growth factor receptor alpha (Homo sapiens, UniProt P16234); experiment: Navigating the Kinome. Panel member name: PDGFRA
# Chain of Platelet-derived growth factor receptor alpha (P16234 whole entry): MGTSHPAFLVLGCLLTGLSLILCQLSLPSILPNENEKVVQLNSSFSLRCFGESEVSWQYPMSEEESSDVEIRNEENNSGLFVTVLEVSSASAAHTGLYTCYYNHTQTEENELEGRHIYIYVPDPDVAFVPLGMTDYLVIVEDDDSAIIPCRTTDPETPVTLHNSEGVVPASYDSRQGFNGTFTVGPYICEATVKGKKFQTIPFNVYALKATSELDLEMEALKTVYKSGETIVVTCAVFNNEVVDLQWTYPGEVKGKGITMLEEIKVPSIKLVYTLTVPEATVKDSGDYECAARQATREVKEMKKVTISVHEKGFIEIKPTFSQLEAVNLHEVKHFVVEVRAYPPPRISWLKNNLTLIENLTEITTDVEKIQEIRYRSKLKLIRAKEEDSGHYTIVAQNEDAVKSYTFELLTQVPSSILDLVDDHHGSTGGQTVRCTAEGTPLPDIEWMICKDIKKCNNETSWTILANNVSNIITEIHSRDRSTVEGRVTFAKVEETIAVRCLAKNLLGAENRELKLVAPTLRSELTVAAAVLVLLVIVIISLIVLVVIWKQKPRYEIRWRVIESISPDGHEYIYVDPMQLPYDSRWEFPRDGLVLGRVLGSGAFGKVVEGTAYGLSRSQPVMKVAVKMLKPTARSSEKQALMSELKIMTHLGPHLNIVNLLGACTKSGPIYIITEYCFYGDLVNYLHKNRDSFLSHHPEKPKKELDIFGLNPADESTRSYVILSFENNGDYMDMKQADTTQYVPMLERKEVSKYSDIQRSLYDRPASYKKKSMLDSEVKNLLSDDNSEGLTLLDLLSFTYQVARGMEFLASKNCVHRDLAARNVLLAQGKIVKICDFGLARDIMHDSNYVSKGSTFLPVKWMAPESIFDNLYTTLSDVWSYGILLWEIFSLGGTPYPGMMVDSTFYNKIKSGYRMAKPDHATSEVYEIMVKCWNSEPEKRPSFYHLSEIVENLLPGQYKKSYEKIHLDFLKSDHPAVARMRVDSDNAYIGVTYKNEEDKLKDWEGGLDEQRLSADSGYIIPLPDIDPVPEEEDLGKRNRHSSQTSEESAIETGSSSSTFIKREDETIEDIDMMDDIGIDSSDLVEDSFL
# [12] = biological target: Glycogen synthase kinase-3 alpha (Homo sapiens, UniProt P49840);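 also: GSK3A result taken from a broad kinome-wide kinase panel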
# Chain of Glycogen synthase kinase-3 alpha (P49840 whole entry): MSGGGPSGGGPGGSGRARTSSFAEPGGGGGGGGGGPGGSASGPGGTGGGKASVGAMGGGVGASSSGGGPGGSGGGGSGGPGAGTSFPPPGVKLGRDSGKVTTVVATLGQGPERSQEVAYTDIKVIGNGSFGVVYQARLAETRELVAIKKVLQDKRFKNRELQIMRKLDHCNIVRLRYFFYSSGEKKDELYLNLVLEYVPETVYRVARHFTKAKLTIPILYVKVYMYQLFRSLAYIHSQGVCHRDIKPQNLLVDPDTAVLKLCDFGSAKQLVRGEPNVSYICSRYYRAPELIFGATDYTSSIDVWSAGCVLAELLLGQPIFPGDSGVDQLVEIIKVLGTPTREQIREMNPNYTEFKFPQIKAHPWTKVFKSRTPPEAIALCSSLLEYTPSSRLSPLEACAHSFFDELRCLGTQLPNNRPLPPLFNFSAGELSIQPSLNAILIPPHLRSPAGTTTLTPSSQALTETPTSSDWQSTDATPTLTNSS
# [13] = biological target: Mitogen-activated protein kinase kinase kinase kinase 4 (Homo sapiens, UniProt O95819)
# [14] = biological target: Serine/threonine-protein kinase pim-1 (Homo sapiens, UniProt P11309)
# Chain of Serine/threonine-protein kinase pim-1 (P11309 whole entry): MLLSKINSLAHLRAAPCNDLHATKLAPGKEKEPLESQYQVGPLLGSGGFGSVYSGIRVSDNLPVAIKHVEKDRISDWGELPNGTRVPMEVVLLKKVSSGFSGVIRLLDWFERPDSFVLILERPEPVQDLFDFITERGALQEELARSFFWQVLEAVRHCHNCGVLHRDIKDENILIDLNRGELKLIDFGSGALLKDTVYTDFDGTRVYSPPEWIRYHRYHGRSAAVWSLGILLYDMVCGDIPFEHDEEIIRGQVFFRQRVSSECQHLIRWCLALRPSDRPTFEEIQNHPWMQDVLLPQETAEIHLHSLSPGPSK
Ki [1],Ki [2],Ki [3],Ki [5],Ki [6],Ki [7],Ki [8],Ki [9],Ki [10],Ki [11],Ki [12],Ki [13],Ki [14],Compound,Ki [4]
> 3.98 µM (inactive),> 3.16 µM (inactive),> 3.98 µM (inactive),> 3.98 µM (inactive),> 2.51 µM (inactive),> 2.51 µM (inactive),> 3.98 µM (inactive),> 3.16 µM (inactive),> 3.16 µM (inactive),> 2.51 µM (inactive),0.0158 µM (active),> 5.01 µM (inactive),> 6.31 µM (inactive),O=C(Nc1cccc(C(F)(F)F)n1)Nc1ccnc2cc(OC(F)F)ccc12,> 5.01 µM (inactive)
> 3.98 µM (inactive),> 3.16 µM (inactive),> 3.98 µM (inactive),> 3.98 µM (inactive),0.1 µM (active),0.000126 µM (active),> 3.98 µM (inactive),> 3.16 µM (inactive),> 3.16 µM (inactive),> 2.51 µM (inactive),> 3.98 µM (inactive),> 5.01 µM (inactive),> 6.31 µM (inactive),CCC1CC(NS(=O)(=O)C2CC2)CC1c1ncc2cnc3[nH]ccc3n12 (stereo not given),0.794 µM (active)
25.1 µM (active),79.4 µM (active),6.31 µM (active),50.1 µM (active),3.98 µM (active),79.4 µM (active),12.6 µM (active),0.0501 µM (active),39.8 µM (active),5.01 µM (active),63.1 µM (active),50.1 µM (active),25.1 µM (active),O=c1[nH]c2cc(Br)cnc2[nH]1,12.6 µM (active)
> 3.98 µM (inactive),> 3.16 µM (inactive),> 3.98 µM (inactive),> 3.98 µM (inactive),> 2.51 µM (inactive),2.51 µM (active),> 3.98 µM (inactive),> 3.16 µM (inactive),> 3.16 µM (inactive),> 2.51 µM (inactive),0.0158 µM (active),–,> 5.01 µM (inactive),O=C(Nc1cccc(C(F)(F)F)n1)Nc1ccnc2cc(Cl)ccc12,> 5.01 µM (inactive)

# From ChEMBL document CHEMBL1201862, “PubChem BioAssay data set” (2004)
